How the values were obtained:
[1] = target: T1, Dual specificity calcium/calmodulin-dependent 3',5'-cyclic nucleotide phosphodiesterase 1C (Homo sapiens, UniProt Q14123); experiment: Inhibition of PDE1C (147 to 531 residues) (unknown origin) expressed in Escherichia coli BL21 using [3H]-cGMP as substrate measured for 15 mins by liquid scintillation counter method
[2] = target: T1, Dual specificity calcium/calmodulin-dependent 3',5'-cyclic nucleotide phosphodiesterase 1C; experiment: Inhibition of PDE1C (147 to 531 residues) (unknown origin) expressed in Escherichia coli BL21 at 1000 nM [3H]-cGMP as substrate measured for 15 mins by liquid scintillation counter method relative to control

T1 sequence (Q14123 whole entry, the tested form may be a part): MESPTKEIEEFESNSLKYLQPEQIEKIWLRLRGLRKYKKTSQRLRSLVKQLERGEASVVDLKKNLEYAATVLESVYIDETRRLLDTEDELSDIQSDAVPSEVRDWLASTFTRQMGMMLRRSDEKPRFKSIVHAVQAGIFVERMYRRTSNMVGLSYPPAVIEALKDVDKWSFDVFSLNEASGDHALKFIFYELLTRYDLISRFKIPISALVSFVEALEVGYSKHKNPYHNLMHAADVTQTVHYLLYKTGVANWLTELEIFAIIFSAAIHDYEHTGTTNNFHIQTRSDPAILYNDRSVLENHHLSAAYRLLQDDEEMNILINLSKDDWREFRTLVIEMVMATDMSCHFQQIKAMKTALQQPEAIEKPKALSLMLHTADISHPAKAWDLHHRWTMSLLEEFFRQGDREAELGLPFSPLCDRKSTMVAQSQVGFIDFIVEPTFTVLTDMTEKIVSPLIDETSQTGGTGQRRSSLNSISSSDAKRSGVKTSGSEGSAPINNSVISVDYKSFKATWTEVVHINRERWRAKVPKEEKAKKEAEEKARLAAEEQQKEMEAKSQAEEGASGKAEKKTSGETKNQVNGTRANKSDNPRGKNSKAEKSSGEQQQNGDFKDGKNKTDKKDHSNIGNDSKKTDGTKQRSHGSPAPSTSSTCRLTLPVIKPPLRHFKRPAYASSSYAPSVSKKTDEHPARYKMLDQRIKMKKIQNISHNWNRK

Row | Compound | IC50 [1] [nM] | inhibition [2] [%]
1 | CC1=C(C(=O)OCc2cncs2)C(c2ccc3c(cnn3C)c2)C(C(=O)OCc2cncs2)=C(C)N1 | 189 | –
2 | COC(=O)C1=C(C)NC(C)=C(C(=O)OC)C1c1cccc(C#N)c1 | – | 25
3 | COC(=O)C1=C(C)NC(C)=C(C(=O)OC)C1c1cccc(OC)c1 | – | 7
